Test results reported in patent US10670605B2, “Cysteine reactive probes and uses thereof” (The Scripps Research Institute, priority 2015, dated 2020).
Where a name gives a salt, the structure may show the parent alone. Each block holds one molecule with its values, some of them ahead of it.

Columns and labels:
THAP11 C48 (Q96EK4) = THAP11 C48 (Q96EK4) (Homo sapiens, UniProt Q96EK4); test: Competitive isoTOP-ABPP in situ; type: cell-based; details: fragment 2 at 200 μM, MDA-MB-231 cells
O00541_C272 = O00541_C272 (Homo sapiens, UniProt O00541); test: Competitive isoTOP-ABPP, cell lysates; type: binding; details: 500 μm, in-vitro_ramos
O00541_C272, sequence (O00541 whole entry, looked up): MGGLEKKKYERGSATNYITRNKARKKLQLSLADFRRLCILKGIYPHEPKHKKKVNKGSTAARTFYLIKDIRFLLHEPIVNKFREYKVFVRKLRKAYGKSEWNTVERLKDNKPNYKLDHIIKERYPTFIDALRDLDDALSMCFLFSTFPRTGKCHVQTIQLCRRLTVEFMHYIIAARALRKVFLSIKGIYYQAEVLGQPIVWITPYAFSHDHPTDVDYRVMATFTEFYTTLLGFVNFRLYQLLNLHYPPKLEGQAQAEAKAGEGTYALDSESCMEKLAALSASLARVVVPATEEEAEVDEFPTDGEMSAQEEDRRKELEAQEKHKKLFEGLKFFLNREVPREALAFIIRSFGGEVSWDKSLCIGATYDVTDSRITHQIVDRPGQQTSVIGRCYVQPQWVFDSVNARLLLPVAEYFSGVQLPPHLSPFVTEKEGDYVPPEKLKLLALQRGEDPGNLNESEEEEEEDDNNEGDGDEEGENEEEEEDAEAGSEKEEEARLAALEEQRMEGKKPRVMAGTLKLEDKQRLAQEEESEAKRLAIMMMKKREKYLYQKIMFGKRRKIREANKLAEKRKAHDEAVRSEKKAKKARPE

primary human T cells [1] = test: IL-2 release (ELISA), anti-CD3 + anti-CD28 stimulated T cells; type: cell-based; details: anti-CD3, anti-CD28 stimulation, 8 h
Description: 96-well plates were coated with anti-CD3 (1:200; BioXcell) and anti-CD28 (1:500; 302933; BioLegend) in PBS (100 μL/well) overnight at 4° C. The plates were then washed twice with PBS and to each well was added 500,000 primary T cells in 100 μL of RPMI supplemented with 10% FBS, glutamine, and Pen-Strep. Cells were then treated with 100 μL of media containing compound at the indicated concentrations (final well volume of 200 μL). Cells were left at 37° C. in a 5% CO2 incubator for the indicated periods of time and harvested by centrifugation (500 g, 8 min, 4° C.), followed by washing with PBS. T cells were harvested and stimulated as described above. At the indicated time points, cell culture supernatants were collected and IL-2 levels were measured in clear microplates (991427; R&D Systems) according to the manufacturer's instructions (Human IL-2 DuoSet ELISA; DY202; R&D Systems). Plates were read in a Gemini SpectraMax 250 microplate reader set to 450 nm. Data represent mean±SE for four experiments per group.

primary human T cells [2] = test: T cell activation markers CD25 and CD69 (flow cytometry); type: cell-based
Description: 96-well plates were coated with anti-CD3 (1:200; BioXcell) and anti-CD28 (1:500; 302933; BioLegend) in PBS (100 μL/well) overnight at 4° C. The plates were then washed twice with PBS and to each well was added 500,000 primary T cells in 100 μL of RPMI supplemented with 10% FBS, glutamine, and Pen-Strep. Cells were then treated with 100 μL of media containing compound at the indicated concentrations (final well volume of 200 μL). Cells were left at 37° C. in a 5% CO2 incubator for the indicated periods of time and harvested by centrifugation (500 g, 8 min, 4° C.), followed by washing with PBS.
Flow cytometry analysis of cell surface antigens was performed with the following antibodies: Pacific Blue-conjugated anti-CD8 (1:25 dilution; clone RPA-T8; BD Biosciences), APC-conjugated anti-CD4 (1:25 dilution; clone RPA-T4; eBioscience), phycoerythrin-conjugated anti-CD25 (1:25 dilution; clone BC96; eBioscience or PC61; BioLegend (PKCθ studies)), FITC-conjugated anti-CD69 (1:25 dilution; clone FN50; eBioscience). All antibodies were diluted in 1% FBS in PBS, and 50 μL of the stain solution was added to each well. […] Flow cytometry acquisition was performed with BD FACSDivam-driven BD™ LSR II flow cytometer (Becton, Dickinson and Company). Data was then analyzed with FlowJo software (Treestar Inc.). Data represent mean±SE for four-five experiments per group.

PKCθ-CD28 interaction = biological target: T1, PKCθ-CD28 interaction (Mus musculus, UniProt Q02111); test: PKCθ immunoprecipitation with CD28 and immunoblot; type: cell-based; details: 50 μM, mouse T cells
T1 construct: endogenous in cells; host or cells: peripheral CD4+ T cells from C57BL/6 mice
T1 sequence (Q02111 whole entry): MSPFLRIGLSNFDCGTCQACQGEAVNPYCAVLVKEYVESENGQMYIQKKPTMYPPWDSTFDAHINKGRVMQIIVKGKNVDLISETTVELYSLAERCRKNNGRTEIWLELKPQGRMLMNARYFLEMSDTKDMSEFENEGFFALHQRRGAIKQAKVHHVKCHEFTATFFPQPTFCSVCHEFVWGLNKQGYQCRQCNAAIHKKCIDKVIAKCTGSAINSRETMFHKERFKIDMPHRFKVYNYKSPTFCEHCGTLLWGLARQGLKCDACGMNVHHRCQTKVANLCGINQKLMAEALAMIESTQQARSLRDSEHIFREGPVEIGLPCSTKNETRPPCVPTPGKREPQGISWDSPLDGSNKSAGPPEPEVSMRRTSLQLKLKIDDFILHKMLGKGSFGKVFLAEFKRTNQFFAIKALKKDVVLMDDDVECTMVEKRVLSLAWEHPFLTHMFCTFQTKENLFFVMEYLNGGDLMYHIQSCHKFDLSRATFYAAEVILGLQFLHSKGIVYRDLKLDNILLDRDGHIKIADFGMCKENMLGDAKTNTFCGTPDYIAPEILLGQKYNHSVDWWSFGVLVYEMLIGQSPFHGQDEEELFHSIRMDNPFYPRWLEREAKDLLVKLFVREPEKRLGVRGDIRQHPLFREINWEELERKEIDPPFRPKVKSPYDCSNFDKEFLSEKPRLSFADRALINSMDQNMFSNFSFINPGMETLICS
Text: FIG. 32A-FIG. 32G exemplify DMF-sensitive C14/C17 residues in PKCθ are important for CD28 interactions and T cell activation. FIG. 32A illustrates representative MS1 profiles for DMF-sensitive (C14/C17) and -insensitive (C322) Cys residues in PKCθ. FIG. 32B exemplifies sequence conservation analysis of human and mouse PKCθ, human PKCδ, and human PKCε (SEQ ID NOS 865-868, respectively, in order of appearance). Shown in red are C14 and C17. FIG. 32C illustrates location of DMF-sensitive C14 and C17 residues in the C2 domain of PKCθ (PDB accession number 2ENJ). […] Immunoprecipitations (IPs) were performed in the cell lysates with anti-CD28 or control IgG antibodies and IPs blotted for CD28 or PKCθ. FIG. 32E illustrates Co-IP of WT PKCθ and the C14S/C17S (2CS) PKCθ mutant with CD28. PKCθ(−/−) T cells were reconstituted with empty vector (EV), WT PKCθ, or the 2CS PKCθ mutant. FIG. 32F and FIG. 32 G illustrate PKCθ(−/−) T cells reconstituted with WT or 2CS PKCθ were assayed for activation potential by measuring CD25 expression (FIG. 32F) and IL-2 (FIG. 32G). For FIG. 32E-FIG. 32G, PKCθ(−/−) T cell cultures were pre-activated with plate-coated anti-CD3+anti-CD28 for 24 h before retroviral transduction with empty vector, WT PKCθ, or the 2CS PKCθ mutant. […]

[3] = tested on: primary mouse splenocytes; details: wild type and Nrf2(-/-) splenocytes; cited from earlier work
CDKN3 C39 (Q16667) = CDKN3 C39 (Q16667) (Homo sapiens, UniProt Q16667); test: Competitive isoTOP-ABPP in situ; type: cell-based; details: fragment 4 at 100 μM, MDA-MB-231 cells
CDKN3 C39 (Q16667), sequence (Q16667 whole entry, the tested form may be a part): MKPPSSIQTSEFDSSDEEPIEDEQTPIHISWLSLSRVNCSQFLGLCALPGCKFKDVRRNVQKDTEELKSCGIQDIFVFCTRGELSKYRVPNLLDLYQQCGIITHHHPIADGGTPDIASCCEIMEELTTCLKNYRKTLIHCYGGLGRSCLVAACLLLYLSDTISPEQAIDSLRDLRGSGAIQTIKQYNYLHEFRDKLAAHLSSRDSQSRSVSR

[4] = anti-CD3, anti-CD28 stimulation, 8 h

THAP11 C48 (Q96EK4), sequence (Q96EK4 whole entry, the tested form may be a part): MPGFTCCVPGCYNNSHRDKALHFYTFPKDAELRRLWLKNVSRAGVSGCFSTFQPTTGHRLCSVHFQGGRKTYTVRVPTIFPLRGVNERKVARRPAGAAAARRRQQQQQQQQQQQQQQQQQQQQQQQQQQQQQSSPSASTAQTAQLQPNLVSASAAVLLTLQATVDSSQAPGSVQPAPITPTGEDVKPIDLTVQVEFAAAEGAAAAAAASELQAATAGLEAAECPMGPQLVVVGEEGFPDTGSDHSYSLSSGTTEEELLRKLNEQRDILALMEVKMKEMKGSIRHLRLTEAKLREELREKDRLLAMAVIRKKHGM

isoTOP-ABPP reactivity profile (ratio) 2_200 μM_in-situ_231 (THAP11 C48 (Q96EK4)): 7.9
Structure (SMILES): COc1ccc2c(c1)CCCN2C(=O)CCl [compound 2]

isoTOP-ABPP reactivity profile ratio, O00541_C272 (O00541_C272): 0.9
Structure (SMILES): N#CC(=Cc1ccc(-c2ccccc2Cl)o1)C(N)=O [compound 42]

Structure (SMILES): COC(=O)/C=C/C(=O)OC [DMF, dimethyl fumarate]
secretion of IL-2 (primary human T cells [1]): strongly inhibited | blockade of T cell activation (primary human T cells [2]; 10 μM): marginal/negligible | blockade of T cell activation (primary human T cells [2]; 25 μM): partial | blockade of T cell activation (primary human T cells [2]; 50 μM): near-complete inhibition | expression of CD25 (primary human T cells [2]; [4]): blocked | expression of CD69 (primary human T cells [2]; [4]): blocked | inhibitory effect on T cell activation (primary human T cells [2]; drug added six hours after stimulation): completely ablated | inhibitory effect on T cell activation (primary human T cells [2]; drug added two hours after stimulation): reduced | interaction between PKCθ and CD28 (PKCθ-CD28 interaction): blocked | pro-inflammatory cytokine release [3]: inhibits

isoTOP-ABPP reactivity profile (ratio) 4_100 μM_in-situ_231 (CDKN3 C39 (Q16667)): 0.6
Structure (SMILES): COc1ccc(C2CC(c3cccs3)=NN2C(=O)CCl)cc1 (stereo not shown) [compound 4]
